In patent publication US9067871B2, “Aminotetraline derivatives, pharmaceutical compositions containing them, and their use in therapy” (ABBVIE DEUTSCHLAND GMBH & CO KG, priority 2009, dated 2015) one finds Ki data, which are given here for 31 compounds.

Structures are written as SMILES. Where a name gives a salt, the structure may show the parent alone. Read-outs that look alike come from different tables or passages of the source. A value given as a limit tells only on which side of the number the result lay.

The target of this assay is human GlyT1c transporter (Homo sapiens (Human), UniProt P48067). The assay is described as follows: Radioligand binding assay using recombinant CHO cell membranes expressing human GlyT1. Conditions: read-out: radioligand binding Kiapp. The text has this: 2. Radioligand binding assays using recombinant CHO cell membranes expressing human GlyT1: […]
[1] abbreviates: human GlyT1c-expressing CHO cell membranes.

Sequence of human GlyT1c transporter (P48067 whole entry): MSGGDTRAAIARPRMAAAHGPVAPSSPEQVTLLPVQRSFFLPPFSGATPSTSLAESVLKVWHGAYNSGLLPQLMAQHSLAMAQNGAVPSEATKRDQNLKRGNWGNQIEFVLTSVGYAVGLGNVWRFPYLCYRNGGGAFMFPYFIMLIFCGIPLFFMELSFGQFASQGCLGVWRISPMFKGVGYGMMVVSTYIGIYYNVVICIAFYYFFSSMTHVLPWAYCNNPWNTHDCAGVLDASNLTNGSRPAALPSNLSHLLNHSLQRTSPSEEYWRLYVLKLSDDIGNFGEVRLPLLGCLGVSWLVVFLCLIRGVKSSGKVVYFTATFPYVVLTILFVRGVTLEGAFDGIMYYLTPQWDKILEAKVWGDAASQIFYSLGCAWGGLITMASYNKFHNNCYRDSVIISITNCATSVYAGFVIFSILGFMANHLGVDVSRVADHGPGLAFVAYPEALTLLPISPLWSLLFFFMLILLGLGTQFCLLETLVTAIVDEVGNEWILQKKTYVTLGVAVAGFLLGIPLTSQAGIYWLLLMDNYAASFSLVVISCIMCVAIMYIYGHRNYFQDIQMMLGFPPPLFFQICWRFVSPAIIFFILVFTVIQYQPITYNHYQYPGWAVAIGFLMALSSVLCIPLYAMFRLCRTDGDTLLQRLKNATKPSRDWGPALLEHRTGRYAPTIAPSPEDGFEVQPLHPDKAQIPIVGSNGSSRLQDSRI

Turning to `CNC1CCc2ccc(OCCNS(=O)(=O)CC3CC3)cc2C1Cc1cccc(F)c1` (single isomer, unassigned; enantiomer 2) [Example 239, Enantiomer 2 of C-cyclopropyl-N-{2-[8-(3-fluoro-benzyl)-7-methylamino-5,6,7,8-tetrahydronaphthalen-2-yloxy]-ethyl}-methanesulfonamide hydrochloride], the Ki under setting [1] is ≤ 1000 nM.

Consider `CC(=O)NC1CCc2ccc(OCCNS(=O)(=O)CC3CC3)cc2C1Cc1cccc(Cl)c1` (stereo not shown) [Example 306, N-[1-(3-Chloro-benzyl)-7-(2-cyclopropylmethanesulfonylamino-ethoxy)-1,2,3,4-tetrahydronaphthalen-2-yl]-acetamide], for which the Ki under setting [1] is ≤ 100 nM.

Consider `O=S(=O)(CC1CC1)NCCOc1ccc2c(c1)C(Cc1ccccc1)C(N1CCCC1)CC2` (stereo not shown) [Example 133, N-(2-{[8-Benzyl-7-(pyrrolidin-1-yl)-5,6,7,8-tetrahydronaphthalen-2-yl]oxy}ethyl)-1-cyclopropylmethanesulfonamide hydrochloride], for which the Ki under setting [1] was ≤ 100 nM.

In the case of `NC1CCc2ccc(OCCNS(=O)(=O)C3CC3)cc2C1Cc1ccccc1Cl` (stereo not shown) [Example 294, Cyclopropanesulfonic acid {2-[7-amino-8-(2-chloro-benzyl)-5,6,7,8-tetrahydro-naphthalen-2-yloxyl]-ethyl}-amide hydrochloride], under setting [1], the Ki is ≤ 10000 nM.

As to `Cn1cnc(S(=O)(=O)NCc2ccc3c(c2)C(Cc2ccccc2)C(N2CCC2)CC3)c1` (single isomer, unassigned; enantiomer 1) [Example 252, Enantiomer 1 of N-{[7-(azetidin-1-yl)-8-benzyl-5,6,7,8-tetrahydronaphthalen-2-yl]methyl}-1-methyl-1H-imidazole-4-sulfonamide], the Ki under setting [1] is ≤ 10 nM.

On to `CCNC1CCc2ccc(CCCNS(=O)(=O)CC3CC3)cc2C1Cc1cccc(F)c1` (stereo not shown) [Example 221, C-Cyclopropyl-N-{3-[7-ethylamino-8-(3-fluoro-benzyl)-5,6,7,8-tetrahydro-naphthalen-2-yl]-propyl}-methanesulfonamide hydrochloride], for which the Ki under setting [1] is ≤ 100 nM.

With `CCN(CC)C1CCc2ccc(CCCNS(=O)(=O)CC3CC3)cc2C1Cc1ccc(Cl)cc1` (stereo not shown) [Example 274, N-{3-[8-(4-Chlorobenzyl)-7-(diethylamino)-5,6,7,8-tetrahydronaphthalen-2-yl]propyl}-1-cyclopropylmethanesulfonamide hydrochloride], the Ki under setting [1] was ≤ 100 nM.

For `Cn1cnc(S(=O)(=O)NCCOc2ccc3c(c2)C(Cc2ccccc2)C(N2CCCC2)CC3)c1` (single isomer, unassigned; (-)) [Example 117, (−)-N-(2-(8-benzyl-7-(pyrrolidin-1-yl)-5,6,7,8-tetrahydronaphthalen-2-yloxy)ethyl)-1-methyl-1H-imidazole-4-sulfonamide hydrochloride], the Ki (human GlyT1c-expressing CHO cell membranes, hydrochloride) was ≤ 10 nM.

Turning to `O=S(=O)(CC1CC1)NCCOc1ccc2c(c1)C(Cc1cccc(F)c1)C(N1CCC1)CC2` (stereo not shown) [Example 139, N-(2-{[7-(Azetidin-1-yl)-8-(3-fluorobenzyl)-5,6,7,8-tetrahydronaphthalen-2-yl]oxy}ethyl)-1-cyclopropylmethanesulfonamide hydrochloride], the Ki under setting [1] was ≤ 10 nM.

For `CN(CCCc1ccc2c(c1)C(Cc1ccccc1Cl)C(N)CC2)S(=O)(=O)CC1CC1` (stereo not shown) [Example 228, N-{3-[7-Amino-8-(2-chloro-benzyl)-5,6,7,8-tetrahydro-naphthalen-2-yl]-propyl}-C-cyclopropyl-N-methyl-methanesulfonamide hydrochloride], the Ki under setting [1] was ≤ 100 nM.

With `Cn1cnc(S(=O)(=O)NCCOc2ccc3c(c2)C(Cc2ccccc2Cl)C(N2CCCC2)CC3)c1` (stereo not shown) [Example 315, 1-Methyl-1H-imidazole-4-sulfonic acid {2-[8-(2-chloro-benzyl)-7-pyrrolidin-1-yl-5,6,7,8-tetrahydro-naphthalen-2-yloxy]-ethyl}-amide hydrochloride], the Ki under setting [1] was ≤ 1000 nM.

With `CCCS(=O)(=O)N(C)CCCc1ccc2c(c1)C(Cc1ccc(Cl)cc1)C(N)CC2` (stereo not shown) [Example 234, N-{3-[7-Amino-8-(4-chlorobenzyl)-5,6,7,8-tetrahydronaphthalen-2-yl]propyl}-N-methylpropane-1-sulfonamide hydrochloride], the Ki under setting [1] was ≤ 100 nM.

As to `NC1CCc2ccc(OCCNS(=O)(=O)CC3CC3)cc2C1Cc1cccc(F)c1` (stereo not shown) [Example 235, N-(2-{[7-Amino-8-(3-fluorobenzyl)-5,6,7,8-tetrahydronaphthalen-2-yl]oxy}ethyl)-1-cyclopropylmethanesulfonamide hydrochloride], the Ki under setting [1] was ≤ 10 nM.

As to `CCCS(=O)(=O)NCCCc1ccc2c(c1)C(Cc1cccc(Cl)c1)C(NC)CC2` (stereo not shown) [Example 308, Propane-1-sulfonic acid {3-[8-(3-chloro-benzyl)-7-methylamino-5,6,7,8-tetrahydronaphthalen-2-yl]-propyl}-amide hydrochloride], the Ki under setting [1] is ≤ 10 nM.

For the compound `NC1CCc2ccc(OCCNS(=O)(=O)C3CCCCC3)cc2C1Cc1ccc(Cl)c(Cl)c1` (stereo not shown) [Example 85, Cyclohexanesulfonic acid {2-[7-amino-8-(3,4-dichloro-benzyl)-5,6,7,8-tetrahydro-naphthalen-2-yloxy]-ethyl}-amide hydrochloride], the Ki under setting [1] was ≤ 1000 nM.

On to `CCCS(=O)(=O)NCCCc1ccc2c(c1)C(Cc1ccccc1)C(NC(C)=O)CC2` (stereo not shown) [Example 217, N-[1-Benzyl-7-{3-[(propylsulfonyl)amino]propyl}-1,2,3,4-tetrahydronaphthalen-2-yl]acetamide], for which the Ki under setting [1] is ≤ 10000 nM.

Consider `CCOCCS(=O)(=O)NCCOc1ccc2c(c1)C(Cc1ccc(Cl)c(Cl)c1)C(N)CC2` (stereo not shown) [Example 93, 2-Ethoxy-ethanesulfonic acid {2-[7-amino-8-(3,4-dichloro-benzyl)-5,6,7,8-tetrahydronaphthalen-2-yloxy]-ethyl}-amide hydrochloride], for which, under setting [1], the Ki is ≤ 1000 nM.

Consider `NC1CCc2ccc(OCCNS(=O)(=O)c3ccccc3)cc2C1Cc1ccccc1` (stereo not shown) [Example 99, N-[2-(7-Amino-8-benzyl-5,6,7,8-tetrahydro-naphthalen-2-yloxy)-ethyl]-benzenesulfonamide hydrochloride], for which, under setting [1], the Ki is ≤ 100 nM.

In the case of `O=S(=O)(NCCOc1ccc2c(c1)C(Cc1ccc(Cl)c(Cl)c1)C(N1CCCC1)CC2)C1CCC1` (stereo not shown) [Example 88, Cyclobutanesulfonic acid {2-[8-(3,4-dichloro-benzyl)-7-pyrrolidin-1-yl-5,6,7,8-tetrahydronaphthalen-2-yloxy]-ethyl}-amide hydrochloride], the Ki under setting [1] is ≤ 100 nM.

On to `CNC1CCc2ccc(OCCNS(=O)(=O)c3ccn(C)c3)cc2C1Cc1cc(F)cc(F)c1` (single isomer, unassigned; enantiomer 2) [Example 242, Enantiomer 2 of N-(2-{[8-(3,5-difluorobenzyl)-7-(methylamino)-5,6,7,8-tetrahydronaphthalen-2-yl]oxy}ethyl)-1-methyl-1H-pyrrole-3-sulfonamide hydrochloride], for which the Ki under setting [1] was ≤ 10 nM.

Consider `Cn1ccc(S(=O)(=O)NCc2ccc3c(c2)C(Cc2ccccc2)C(N)CC3)n1` (stereo not shown) [Example 183, N-{[7-Amino-8-benzyl-5,6,7,8-tetrahydronaphthalen-2-yl]methyl}-1-methyl-1H-pyrazole-3-sulfonamide hydrochloride], for which the Ki under setting [1] was ≤ 1000 nM.

As to `CCN(CCOc1ccc2c(c1)C(Cc1ccc(Cl)c(Cl)c1)C(N)CC2)S(=O)(=O)c1cnn(C)c1` (stereo not shown) [Example 110, N-(2-(7-Amino-8-(3,4-dichlorobenzyl)-5,6,7,8-tetrahydronaphthalen-2-yloxy)ethyl)-N-ethyl-1-methyl-1H-pyrazole-4-sulfonamide], the Ki under setting [1] is ≤ 1000 nM.

For the compound `COc1cccc(CC2c3cc(OCCNS(=O)(=O)c4cn(C)cn4)ccc3CCC2N2CCCC2)c1` (stereo not shown) [Example 164, N-(2-{[8-(3-Methoxybenzyl)-7-(pyrrolidin-1-yl)-5,6,7,8-tetrahydronaphthalen-2-yl]oxy}ethyl)-1-methyl-1H-imidazole-4-sulfonamide hydrochloride], under setting [1], the Ki is ≤ 10 nM.

As to `CNC1CCc2ccc(CNS(=O)(=O)c3ccn(C)n3)cc2C1Cc1ccccc1` (stereo not shown) [Example 191, N-{[8-Benzyl-7-(methylamino)-5,6,7,8-tetrahydronaphthalen-2-yl]methyl}-1-methyl-1H-pyrazole-3-sulfonamide hydrochloride], under setting [1], the Ki is ≤ 1000 nM.

With `CC(=O)NC1CCc2ccc(CNS(=O)(=O)c3cn(C)cn3)cc2C1Cc1ccc(F)cc1` (stereo not shown) [Example 197], the Ki under setting [1] was ≤ 10000 nM.

Turning to `Cn1cnc(S(=O)(=O)NCc2ccc3c(c2)C(Cc2cccc(F)c2)C(N)CC3)c1` (stereo not shown) [Example 177, N-{[7-Amino-8-(3-fluorobenzyl)-5,6,7,8-tetrahydronaphthalen-2-yl]methyl}-1-methyl-1H-imidazole-4-sulfonamide hydrochloride], the Ki under setting [1] is ≤ 10 nM.

For the compound `NC1CCc2ccc(CNS(=O)(=O)C3CCC3)cc2C1Cc1cccc(F)c1` (stereo not shown) [Example 184, N-{[7-Amino-8-(3-fluorobenzyl)-5,6,7,8-tetrahydronaphthalen-2-yl]methyl}cyclobutanesulfonamide hydrochloride], the Ki under setting [1] was ≤ 100 nM.

`CCCS(=O)(=O)NCCCc1ccc2c(c1)C(Cc1ccc(Cl)c(Cl)c1)C(NC(C)C)CC2` (stereo not shown) [Example 272, N-{3-[8-(3,4-Dichlorobenzyl)-7-(propan-2-ylamino)-5,6,7,8-tetrahydronaphthalen-2-yl]propyl}propane-1-sulfonamide]: under setting [1], the Ki was ≤ 100 nM.

Consider `CNC1CCc2ccc(OCCNS(=O)(=O)CC3CC3)cc2C1Cc1ccccc1` (stereo not shown) [Example 137, N-(2-{[8-Benzyl-7-(methylamino)-5,6,7,8-tetrahydronaphthalen-2-yl]oxy}ethyl)-1-cyclopropylmethanesulfonamide hydrochloride], for which the Ki under setting [1] was ≤ 10 nM.

Consider `CCCS(=O)(=O)N(CCOc1ccc2c(c1)C(Cc1cccc(Cl)c1)C(NC(=O)OCC)CC2)C1CC1` (stereo not shown) [Example 279], for which the Ki was ≤ 10000 nM.

As to `O=S(=O)(NCc1ccc2c(c1)C(Cc1ccccc1)C(N1CCC1)CC2)c1cccs1` (single isomer, unassigned; enantiomer 1) [Example 255, Enantiomer 1 of N-{[7-(azetidin-1-yl)-8-benzyl-5,6,7,8-tetrahydronaphthalen-2-yl]methyl}thiophene-2-sulfonamide], the Ki under setting [1] was ≤ 1000 nM.
